{
  "source": "paper PMC12501029",
  "about": "“Discovery of a CNS active GSK3 degrader using orthogonally reactive linker screening” (Nature Communications, 2025)",
  "key": {"[1]": {"test_system": "GSK3, total β-catenin, phospho-CRMP2", "experiment": "GSK3 and GSK3 substrates immunoblot in differentiated SH-SY5Y cells, 24 h", "type": "cell-based, human", "description": "HEK293 cells purchased from ATCC and MEF cells were kindly gifted by MRC PPU reagents and services at the University of Dundee. HEK293 and MEF cells were maintained in DMEM (high glucose, GlutaMAX; Gibco) containing 10% foetal bovine serum (FBS; Thermo Fisher), 100U ML-1 penicillin-streptomycin (Thermo Fisher). HAP1 wild type and HAP1 Cereblon Knock-out cell line (CRBN-KO, HZGHC003752c001, Horizon) was a gift from the Ciulli Lab. HAP1 cells were cultured in IMDM (Gibco) with the same additives described as above. SH-SY5Y human neuroblastoma cells (ATCC, CRL-2266) maintained in DMEM (high glucose, Gibco) supplemented with same additives as above. For differentiation, 5 × 10^5 cells were seeded into each well of 6 well plates and differentiated into a more neuronal-like phenotype by treating for 5 days with 10 µM retinoic acid (F9665, Sigma), changing the media every day for the first 3 days[39],[40]. […]\nHEK293, HAP1, HAP1 CRBN KO and SH-SY5Y cells were plated in either 6 cm plates or 6-well plates at varying densities (0.5–0.7 × 10^6 cells per plate or wells), and MEF cells were plated in 10 cm plates (1–1.2 × 10^6 cells per plate) depending on experimental set up in respective culturing condition as described above. […] Following clearance of lysates, protein concentrations were determined by the BCA assay (Fisher Scientific, 23225) or Bradford assay (Bio-rad). […]"}, "mouse liver proteome": {"test_system": "mouse liver proteome", "experiment": "Whole proteome analysis of liver tissue from PK/PD study", "type": "in vivo, female Balb/c mice", "conditions": "5 mg/kg i.v., 4 h; GSK3α could not be quantified"}},
  "data": [
    {"molecule": "Cn1nc(N2CCC(=O)NC2=O)c2ccc(CN3CCN(Cc4ccc(-c5cn(-c6ccc(-c7cn8nccc(C(=O)Nc9cnccc9N9CCOCC9)c8n7)cc6)nn5)nc4)CC3)cc21", "note": "[compound 24]", "values": [
      {"measurement": "phospho-CRMP2 level", "setting": "[1]; concurrent with GSK3 degradation", "result": "concurrent reduction in phospho-CRMP2"},
      {"measurement": "dose at which β-catenin stabilisation most clear", "setting": "[1]; highest tested dose", "result": 100, "unit": "nM"},
      {"measurement": "proteome wide specificity in liver", "setting": "mouse liver proteome", "result": "high levels of proteome wide specificity for GSK3β removal"}
    ]}
  ]
}
